Test results reported in ChEMBL document CHEMBL1149402, “New potential antibacterials: a synthetic route to N-aryloxazolidinone/3-aryltetrahydroisoquinoline hybrids” (2006).

Tested on: Staphylococcus aureus
Test: Antibacterial activity against methicillin-susceptible Staphylococcus aureus ATCC 29213
Format: functional

Br.CC(=O)NC[C@H]1CN(c2ccc(C3Cc4cc(O)c(O)cc4CN3)cc2)C(=O)O1 (stereo partly specified) was tested. Which MIC did it give?
The MIC was over 64 µg/mL.
